From BindingDB's records for doi:10.1124/mol.64.4.841 (Pohang University of Science and Technology, 2003)
pKi: −log10 of the molar value. Square brackets hold non-standard residues; d marks the D form. Peptide text beside a SMILES is read from it.

Target: T1, fMet-Leu-Phe receptor (Homo sapiens, UniProt P21462)
T1 sequence (P21462 whole entry): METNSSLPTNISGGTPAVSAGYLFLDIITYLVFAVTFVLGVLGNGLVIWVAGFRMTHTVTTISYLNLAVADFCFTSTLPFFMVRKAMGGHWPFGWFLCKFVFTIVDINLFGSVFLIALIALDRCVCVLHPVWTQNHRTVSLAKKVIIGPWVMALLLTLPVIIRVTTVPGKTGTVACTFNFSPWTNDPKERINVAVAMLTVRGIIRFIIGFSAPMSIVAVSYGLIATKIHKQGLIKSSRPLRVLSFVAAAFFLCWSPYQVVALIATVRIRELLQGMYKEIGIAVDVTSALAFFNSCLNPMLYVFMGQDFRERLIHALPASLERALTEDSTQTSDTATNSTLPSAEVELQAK

CSCC[C@H](NC(=O)[C@H](Cc1ccc(O)cc1)NC(=O)[C@H](CC(=O)O)NC(=O)[C@@H](N)Cc1c[nH]c2ccccc12)C(=O)N[C@H](C(=O)N[C@H](CCSC)C(N)=O)C(C)C [WDYMVm-NH2] (H-WDYMV[dM]-NH2)
pKi: 7.00

CSCC[C@H](NC(=O)[C@H](Cc1ccc(O)cc1)NC(=O)[C@H](CCC(=O)O)NC(=O)[C@@H](N)Cc1c[nH]c2ccccc12)C(=O)N[C@H](C(=O)N[C@H](CCSC)C(N)=O)C(C)C [WEYMVm-NH2] (H-WEYMV[dM]-NH2)
pKi: 6.49

CSCC[C@H](NC(=O)[C@H](Cc1ccc(O)cc1)NC(=O)[C@H](Cc1c[nH]cn1)NC(=O)[C@@H](N)Cc1c[nH]c2ccccc12)C(=O)N[C@H](C(=O)N[C@H](CCSC)C(N)=O)C(C)C [WHYMVm-NH2] (H-WHYMV[dM]-NH2)
pKi: 7.49

CSCC[C@H](NC(=O)[C@H](CC(=O)O)NC(=O)[C@H](CCCCN)NC(=O)[C@@H](N)Cc1c[nH]c2ccccc12)C(=O)N[C@H](C(=O)N[C@H](CCSC)C(N)=O)C(C)C [WKDMVm-NH2] (H-WKDMV[dM]-NH2)
pKi: 5.89

CSCC[C@H](NC(=O)[C@H](CCC(=O)O)NC(=O)[C@H](CCCCN)NC(=O)[C@@H](N)Cc1c[nH]c2ccccc12)C(=O)N[C@H](C(=O)N[C@H](CCSC)C(N)=O)C(C)C [WKEMVm-NH2] (H-WKEMV[dM]-NH2)
pKi: 5.88

CSCC[C@H](NC(=O)[C@H](Cc1ccccc1)NC(=O)[C@H](CCCCN)NC(=O)[C@@H](N)Cc1c[nH]c2ccccc12)C(=O)N[C@H](C(=O)N[C@H](CCSC)C(N)=O)C(C)C [WKFMVm-NH2] (H-WKFMV[dM]-NH2)
pKi: 7.74

CSCC[C@H](NC(=O)[C@H](Cc1c[nH]cn1)NC(=O)[C@H](CCCCN)NC(=O)[C@@H](N)Cc1c[nH]c2ccccc12)C(=O)N[C@H](C(=O)N[C@H](CCSC)C(N)=O)C(C)C [WKHMVm-NH2] (H-WKHMV[dM]-NH2)
pKi: 6.55

CSCC[C@H](NC(=O)[C@H](Cc1c[nH]c2ccccc12)NC(=O)[C@H](CCCCN)NC(=O)[C@@H](N)Cc1c[nH]c2ccccc12)C(=O)N[C@H](C(=O)N[C@H](CCSC)C(N)=O)C(C)C [WKWMVm-NH2] (H-WKWMV[dM]-NH2)
pKi: 7.72

CSCC[C@H](NC(=O)[C@H](Cc1ccc(O)cc1)NC(=O)[C@H](CCCCN)NC(=O)[C@@H](N)Cc1c[nH]c2ccccc12)C(=O)N[C@@H](Cc1ccccc1)C(=O)N[C@H](CCSC)C(N)=O [WKYM(F/W)m-NH2]
pKi: 7.24

CSCC[C@H](NC(=O)[C@H](Cc1ccc(O)cc1)NC(=O)[C@H](CCCCN)NC(=O)[C@@H](N)Cc1c[nH]c2ccccc12)C(=O)N[C@@H](Cc1ccc(O)cc1)C(=O)N[C@H](CCSC)C(N)=O [WKYMYm-NH2] (H-WKYMY[dM]-NH2)
pKi: 6.17

CSCC[C@H](NC(=O)[C@H](Cc1ccc(O)cc1)NC(=O)[C@H](CCCNC(=N)N)NC(=O)[C@@H](N)Cc1c[nH]c2ccccc12)C(=O)N[C@H](C(=O)N[C@H](CCSC)C(N)=O)C(C)C [WRYMVm-NH2] (H-WRYMV[dM]-NH2)
pKi: 7.26

CSCC[C@H](NC(=O)[C@@H](N)Cc1ccc(O)cc1)C(=O)N[C@H](C(=O)N[C@H](CCSC)C(N)=O)C(C)C [YMVm-NH2] (H-YMV[dM]-NH2)
pKi: 6.25
